# Active and inactive are the calls of the source.
# Columns and labels:
# [1] = molecular target: Heat shock protein HSP 90-alpha (Homo sapiens, UniProt P07900); type: functional, organism-based
# [2] = test system: Streptococcus; assay: Group A Streptococcus viability loss, dose response, counter-screen for streptokinase expression inhibitor project, luminescence, BacTiterGlo (AID 1915); type: functional, organism-based;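 note: potency for reduction of bacterial viability or growth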
# [3] = test system: BJ; assay: cytotoxicity toward BJ-TERT fibroblasts, dose response, cell-based, RAS-independent, luminescence (AID 1933); type: functional; details: Homo sapiens
# [4] = Counterscreen for AddAB inhibitors: absorbance-based bacterial cell-based high throughput dose response assay for inhibitors of bacterial viability. [Related pubchem assays (depositor defined):AID435030, AID449728, AID449731, AID488942, AID488955, AID488956]; type: functional
# [5] = cells; type: functional, cell-based
# [6] = inhibitors of firefly luciferase expression or activity, dose response, H4 neuroglioma cells, luminescence (AID 1990); type: functional, cell-based
# [7] = test system: Vero; assay: cells; type: functional; details: Chlorocebus sabaeus
# [8] = inhibitors of SNCA 5'UTR-driven reporter translation, confirmation, H4 neuroglioma cells, luminescence (AID 1988); type: functional, cell-based
# [9] = insulin promoter down-regulators in MIN6 cells, imaging, high-content screening, mouse beta cells (AID 1628); type: functional
# [10] = molecular target: T1, Heat shock factor protein 1 (Mus musculus, UniProt P38532); assay: HSF1 potentiators in luciferase reporter cells, confirmation, cell-based, NIH3T3, luminescence, dose retest (AID 435004); type: functional;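 note: stress induced by proteasome inhibitor MG132 added 30 min after compound; luciferase reporter driven by HSF1 response element in NIH3T3 cells; actives raise luminescence as potentiators of the MG132 stress response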
# T1 sequence (P38532 whole entry): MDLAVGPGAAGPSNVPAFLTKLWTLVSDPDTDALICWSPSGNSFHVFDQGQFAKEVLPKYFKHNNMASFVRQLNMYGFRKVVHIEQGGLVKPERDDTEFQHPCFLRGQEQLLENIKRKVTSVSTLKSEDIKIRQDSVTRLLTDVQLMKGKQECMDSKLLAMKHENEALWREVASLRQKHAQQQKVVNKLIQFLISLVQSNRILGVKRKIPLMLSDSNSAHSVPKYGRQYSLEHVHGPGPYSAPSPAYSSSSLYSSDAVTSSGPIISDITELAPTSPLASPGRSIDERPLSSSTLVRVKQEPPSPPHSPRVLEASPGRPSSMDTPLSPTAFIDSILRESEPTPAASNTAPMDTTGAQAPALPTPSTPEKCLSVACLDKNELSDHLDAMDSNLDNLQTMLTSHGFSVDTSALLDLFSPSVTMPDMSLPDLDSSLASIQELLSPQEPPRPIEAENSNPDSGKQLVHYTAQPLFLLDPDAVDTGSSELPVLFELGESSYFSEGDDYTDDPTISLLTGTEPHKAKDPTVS
# [11] = test system: BJ; assay: cytotoxicity toward Ras-transformed BJeLR fibroblasts, dose response, cell-based, alamar blue fluorescence, cherrypicked samples (AID 2631); type: functional; details: Homo sapiens;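 note: confirmatory dose-response assay in RAS-dependent BJ fibroblasts engineered with TERT, LT and ST, with cytotoxicity read by fluorescence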
# [12] = cytotoxicity in MIN6 insulinoma cells, dose response, cytotoxicity control, cell-based, mouse insulinoma (AID 2122); type: functional;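 note: confirmatory high-throughput counterscreen run to flag cytotoxic compounds; mouse MIN-6 beta cells carrying an insulin promoter eGFP reporter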
# [13] = test system: Vero; assay: cells; type: functional, cell-based; details: Chlorocebus sabaeus
# [14] = luciferase reporter signal reduction – luminescence, H4-C neuroglioblastoma cells, dose response (AID 2458); type: functional, cell-based;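 note: H4 neuroglioblastoma cells stably carrying a luciferase reporter gene fusion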
# [15] = test system: BJ; assay: cells; type: functional, cell-based; details: Homo sapiens
# [16] = cytotoxicity toward DRD oncogenic fibroblasts, dose response, cell-based, non-viral oncogenic, luminescence (AID 1934); type: functional; details: Homo sapiens
# [17] = inhibitors of SNCA 5'UTR-driven translation, confirmation, luminescence, H4 neuroglioblastoma cells, dose confirmation (AID 2454); type: functional, cell-based;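 note: H4 neuroglioblastoma cells carrying an alpha-synuclein 5'UTR luciferase reporter; potency for inhibition of the luciferase signal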
# [18] = Luminescence Cell-Based Dose Response HTS to Identify Inhibitors of 5'UTR Stem-Loop Driven Prion Protein mRNA Translation in H4 Neuroglioblastoma Cells. [Related pubchem assays: 1827 (Project Summary), 1813 (Primary HTS)]; type: functional
# [19] = test system: BJ; assay: cytotoxicity toward BJ-TERT-LT-ST fibroblasts, dose response, cell-based, RAS-independent, luminescence (AID 1935); type: functional; details: Homo sapiens;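 note: BJ fibroblasts immortalized with TERT plus LT and ST oncogenes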
# [20] = test system: Streptococcus sp. 'group A'; assay: growth inhibition of control SK(-) GAS strain, dose response, counter-screen for streptokinase expression inhibitor project, luminescence, kanamycin, BacTiterGlo, confirmation (AID 1900); type: functional, organism-based
# [21] = molecular target: Exodeoxyribonuclease V (Escherichia coli (strain K12), UniProt P04993+P07648+P08394); assay: E. coli RecBCD inhibitors, dose response, counter-screen for AddAB inhibitor project, absorbance, V66 E. coli, mutant T4 phage (AID 492957); type: functional, cell-based, Escherichia coli str. K-12 substr. MG1655
# [22] = cytotoxicity in HEK-293T cells, dose response, cytotoxicity control for TCR NF-kB inhibitor project, luminescence, T-cell screen hits (AID 489026); type: functional, cell-based;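 note: cells exposed to compound about 14 hours before the viability readout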
# [23] = test system: HeLa; assay: HeLa cell cytotoxicity, dose response, cytotoxicity control for MITF activator project, CellTiter-Glo luminescence, cherry-pick samples (AID 540259); type: functional, cell-based; details: Homo sapiens
# [24] = test system: HEK293; assay: cells; details: Homo sapiens
# [25] = test system: HEK293; assay: cells; details: Homo sapiens; remark: listed apart in the source
# [26] = molecular target: T2, Calpain-2 catalytic subunit (Sus scrofa, UniProt P43367); assay: pig calpain II inhibitor potency, dose response, biochemical, fluorogenic peptide substrate (AID 1420); type: functional
# T2 sequence (P43367 whole entry): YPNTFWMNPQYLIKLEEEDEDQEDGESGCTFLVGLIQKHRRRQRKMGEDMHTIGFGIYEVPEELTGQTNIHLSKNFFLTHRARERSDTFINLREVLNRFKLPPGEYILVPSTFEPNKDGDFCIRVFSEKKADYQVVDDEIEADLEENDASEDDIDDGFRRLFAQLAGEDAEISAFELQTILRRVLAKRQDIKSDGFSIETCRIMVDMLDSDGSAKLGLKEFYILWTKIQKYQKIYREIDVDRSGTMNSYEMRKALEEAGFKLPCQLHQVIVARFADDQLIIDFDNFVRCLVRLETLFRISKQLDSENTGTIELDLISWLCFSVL
# [27] = Shn3 3'UTR reporter inhibitors, dose response, cell-based, Clone20 osteoblasts, firefly luciferase, cherry-picked (AID 624132); type: functional;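 note: firefly luciferase luminescence from reporter carrying the Shn3 3'UTR in osteoblasts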
# [28] = THP-1 cell cytotoxicity, dose response, cytotoxicity control for non-replicating M. tuberculosis project (AID 489025); type: functional
# [29] = molecular target: T3, Short transient receptor potential channel 4 (Mus musculus, UniProt Q9QUQ5); assay: mouse TRPC4 channel inhibitors, dose response, cell-based, HEK293 TRPC4/mu-opioid, Fluo-4 calcium (AID 434942); type: functional;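 note: potency of inhibitors blocking the TRPC4 calcium response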
# T3 sequence (Q9QUQ5 whole entry): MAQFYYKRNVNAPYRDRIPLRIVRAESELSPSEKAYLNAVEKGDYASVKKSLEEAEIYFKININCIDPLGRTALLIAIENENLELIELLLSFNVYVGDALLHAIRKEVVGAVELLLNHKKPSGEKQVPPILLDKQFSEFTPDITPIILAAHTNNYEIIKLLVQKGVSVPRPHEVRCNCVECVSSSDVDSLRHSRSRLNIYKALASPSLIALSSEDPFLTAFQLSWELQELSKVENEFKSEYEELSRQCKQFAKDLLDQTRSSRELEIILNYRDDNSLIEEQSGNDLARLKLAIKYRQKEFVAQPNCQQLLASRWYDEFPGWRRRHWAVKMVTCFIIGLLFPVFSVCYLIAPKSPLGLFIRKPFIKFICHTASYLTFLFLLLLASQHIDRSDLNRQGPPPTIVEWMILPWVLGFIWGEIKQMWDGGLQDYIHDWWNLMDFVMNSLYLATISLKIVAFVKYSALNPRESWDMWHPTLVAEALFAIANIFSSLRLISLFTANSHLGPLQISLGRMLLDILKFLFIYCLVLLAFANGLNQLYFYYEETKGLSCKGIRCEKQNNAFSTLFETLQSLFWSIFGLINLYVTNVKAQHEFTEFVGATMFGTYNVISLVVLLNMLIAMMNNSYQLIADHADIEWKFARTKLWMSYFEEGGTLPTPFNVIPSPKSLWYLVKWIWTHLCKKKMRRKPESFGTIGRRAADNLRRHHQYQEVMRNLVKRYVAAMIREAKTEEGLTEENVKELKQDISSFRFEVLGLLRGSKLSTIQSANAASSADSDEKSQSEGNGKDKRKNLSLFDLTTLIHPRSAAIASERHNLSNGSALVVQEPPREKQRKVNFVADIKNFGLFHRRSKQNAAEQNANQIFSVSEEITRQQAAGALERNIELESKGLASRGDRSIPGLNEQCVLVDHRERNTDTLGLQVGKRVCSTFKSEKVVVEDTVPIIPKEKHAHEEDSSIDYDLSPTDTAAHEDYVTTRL
# [30] = HepG2 cell cytotoxicity, dose response, cytotoxicity control for Shn3 inhibitor project, CellTiter-Glo, cherry-picked (AID 624134); type: functional, cell-based
# [31] = molecular target: Mu-type opioid receptor (Homo sapiens, UniProt P35372); assay: (§1) Counterscreen for agonists of heterodimerization of the mu 1 (OPRM1) and delta 1 (OPRD1) opioid receptors: Luminescence-based cell-based high throughput dose response assay to identify agonists of OPRM1 homodimerization.; type: functional
# [32] = HepG2 cell cytotoxicity, dose response, cytotoxicity control for non-replicating M. tuberculosis project (AID 489018); type: functional; details: Mycobacterium tuberculosis
# [33] = cells; type: functional
# [34] = inhibitors of intracellular T. cruzi replication, confirmation, NIH3T3 host cells, beta-gal luminescence (AID 2044); type: functional, cell-based;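 note: intracellular parasites grown in NIH/3T3 mouse fibroblasts as host cells; luminescent beta-galactosidase reporter signal from transgenic T. cruzi replicating inside host cells; inhibitors lower the luminescence signal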
# [35] = molecular target: T3, Short transient receptor potential channel 4; assay: mouse TRPC4 channel activators, dose response, cell-based, HEK293 TRPC4/mu-opioid, Fluo-4 calcium (AID 434937); type: functional
# [36] = Vero E6 cell cytotoxicity, dose response, cytotoxicity control for non-replicating M. tuberculosis project, secondary assay (AID 492998); type: functional, VeroE6; details: Vero C1008
# [37] = cytotoxicity toward NIH3T3 fibroblasts, dose response, counter-screen, cell-based, ATP luminescence, mouse fibroblasts (AID 2010); type: functional;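 note: cells exposed to compound for about 90 hours before reading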
# [38] = molecular target: Delta-type opioid receptor (Homo sapiens, UniProt P41143); assay: as §1, with “of OPRD1” for “of OPRM1”, “homodimerization. [Related pubchem assays (depositor defined):AID504326, AID504355, AID504692, AID504904, AID504905]” for “homodimerization.”; type: functional
# [39] = control 3'UTR Renilla luciferase suppression, dose response, counter-screen for Shn3 inhibitor project, cell-based, Clone20-Shn3RL, cherry-picked (AID 624133); type: functional
# [40] = molecular target: 5-hydroxytryptamine receptor 5A (Homo sapiens, UniProt P47898); assay: Counterscreen for agonists of OPRM1-OPRD1 heterodimerization: luminescence-based cell-based high throughput dose response assay to identify agonists of 5-hydroxytryptamine (serotonin) 5A receptor (HTR5A). [Related pubchem assays (depositor defined):AID504326, AID504355, AID504692, AID504904, AID504905]; type: functional
# Chain of 5-hydroxytryptamine receptor 5A (P47898 whole entry): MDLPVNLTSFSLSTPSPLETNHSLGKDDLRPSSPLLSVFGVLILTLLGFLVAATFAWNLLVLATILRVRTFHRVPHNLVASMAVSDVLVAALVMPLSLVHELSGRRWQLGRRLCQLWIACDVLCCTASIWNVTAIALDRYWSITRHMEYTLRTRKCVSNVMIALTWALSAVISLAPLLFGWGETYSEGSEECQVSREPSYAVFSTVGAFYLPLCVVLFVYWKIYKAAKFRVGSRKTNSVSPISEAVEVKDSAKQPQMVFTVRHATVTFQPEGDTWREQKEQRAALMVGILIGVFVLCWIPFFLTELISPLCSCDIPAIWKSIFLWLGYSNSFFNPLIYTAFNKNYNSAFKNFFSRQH
# Chain of Exodeoxyribonuclease V (P04993 whole entry): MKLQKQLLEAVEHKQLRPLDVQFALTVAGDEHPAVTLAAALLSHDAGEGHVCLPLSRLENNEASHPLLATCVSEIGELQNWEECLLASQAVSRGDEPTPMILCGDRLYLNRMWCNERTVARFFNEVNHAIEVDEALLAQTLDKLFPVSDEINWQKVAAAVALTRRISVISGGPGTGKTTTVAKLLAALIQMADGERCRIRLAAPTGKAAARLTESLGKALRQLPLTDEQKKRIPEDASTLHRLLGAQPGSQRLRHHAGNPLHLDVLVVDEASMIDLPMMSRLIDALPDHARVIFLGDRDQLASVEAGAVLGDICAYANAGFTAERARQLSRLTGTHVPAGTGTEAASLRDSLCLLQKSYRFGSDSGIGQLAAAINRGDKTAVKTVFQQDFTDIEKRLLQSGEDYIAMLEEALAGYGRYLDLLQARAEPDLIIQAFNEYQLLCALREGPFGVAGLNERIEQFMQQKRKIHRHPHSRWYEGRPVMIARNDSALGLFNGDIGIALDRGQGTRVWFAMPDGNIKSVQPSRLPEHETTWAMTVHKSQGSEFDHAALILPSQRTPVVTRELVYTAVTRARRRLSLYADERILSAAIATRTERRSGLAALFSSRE
# Chain of Exodeoxyribonuclease V (P07648 whole entry): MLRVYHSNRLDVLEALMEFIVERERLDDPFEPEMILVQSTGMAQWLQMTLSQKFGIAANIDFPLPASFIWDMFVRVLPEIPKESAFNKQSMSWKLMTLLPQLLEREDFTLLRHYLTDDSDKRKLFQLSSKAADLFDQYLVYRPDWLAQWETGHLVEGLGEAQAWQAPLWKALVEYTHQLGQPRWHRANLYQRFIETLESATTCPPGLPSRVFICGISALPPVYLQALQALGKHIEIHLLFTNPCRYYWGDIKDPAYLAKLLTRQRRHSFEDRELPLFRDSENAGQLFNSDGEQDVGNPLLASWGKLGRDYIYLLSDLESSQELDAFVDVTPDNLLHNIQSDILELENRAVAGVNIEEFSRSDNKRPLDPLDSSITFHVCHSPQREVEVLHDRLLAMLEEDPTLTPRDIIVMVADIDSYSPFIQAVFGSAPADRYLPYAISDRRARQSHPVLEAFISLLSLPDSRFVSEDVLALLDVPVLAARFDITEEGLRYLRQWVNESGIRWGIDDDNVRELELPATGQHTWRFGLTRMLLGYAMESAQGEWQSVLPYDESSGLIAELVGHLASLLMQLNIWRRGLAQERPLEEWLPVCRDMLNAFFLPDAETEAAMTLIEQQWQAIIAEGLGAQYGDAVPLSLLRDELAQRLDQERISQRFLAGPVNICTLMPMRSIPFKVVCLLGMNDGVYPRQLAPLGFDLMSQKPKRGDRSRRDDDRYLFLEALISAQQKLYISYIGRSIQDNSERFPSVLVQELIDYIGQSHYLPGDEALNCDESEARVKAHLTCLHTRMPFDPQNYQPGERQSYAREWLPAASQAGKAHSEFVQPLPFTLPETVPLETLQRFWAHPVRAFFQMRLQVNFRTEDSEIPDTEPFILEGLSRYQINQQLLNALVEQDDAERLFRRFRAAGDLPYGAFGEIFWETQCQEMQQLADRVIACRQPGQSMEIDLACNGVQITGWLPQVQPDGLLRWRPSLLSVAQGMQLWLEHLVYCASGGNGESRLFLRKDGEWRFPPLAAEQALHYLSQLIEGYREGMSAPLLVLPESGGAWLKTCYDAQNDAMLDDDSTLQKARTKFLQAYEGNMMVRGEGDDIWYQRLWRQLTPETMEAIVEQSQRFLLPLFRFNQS
# Chain of Exodeoxyribonuclease V (P08394 whole entry): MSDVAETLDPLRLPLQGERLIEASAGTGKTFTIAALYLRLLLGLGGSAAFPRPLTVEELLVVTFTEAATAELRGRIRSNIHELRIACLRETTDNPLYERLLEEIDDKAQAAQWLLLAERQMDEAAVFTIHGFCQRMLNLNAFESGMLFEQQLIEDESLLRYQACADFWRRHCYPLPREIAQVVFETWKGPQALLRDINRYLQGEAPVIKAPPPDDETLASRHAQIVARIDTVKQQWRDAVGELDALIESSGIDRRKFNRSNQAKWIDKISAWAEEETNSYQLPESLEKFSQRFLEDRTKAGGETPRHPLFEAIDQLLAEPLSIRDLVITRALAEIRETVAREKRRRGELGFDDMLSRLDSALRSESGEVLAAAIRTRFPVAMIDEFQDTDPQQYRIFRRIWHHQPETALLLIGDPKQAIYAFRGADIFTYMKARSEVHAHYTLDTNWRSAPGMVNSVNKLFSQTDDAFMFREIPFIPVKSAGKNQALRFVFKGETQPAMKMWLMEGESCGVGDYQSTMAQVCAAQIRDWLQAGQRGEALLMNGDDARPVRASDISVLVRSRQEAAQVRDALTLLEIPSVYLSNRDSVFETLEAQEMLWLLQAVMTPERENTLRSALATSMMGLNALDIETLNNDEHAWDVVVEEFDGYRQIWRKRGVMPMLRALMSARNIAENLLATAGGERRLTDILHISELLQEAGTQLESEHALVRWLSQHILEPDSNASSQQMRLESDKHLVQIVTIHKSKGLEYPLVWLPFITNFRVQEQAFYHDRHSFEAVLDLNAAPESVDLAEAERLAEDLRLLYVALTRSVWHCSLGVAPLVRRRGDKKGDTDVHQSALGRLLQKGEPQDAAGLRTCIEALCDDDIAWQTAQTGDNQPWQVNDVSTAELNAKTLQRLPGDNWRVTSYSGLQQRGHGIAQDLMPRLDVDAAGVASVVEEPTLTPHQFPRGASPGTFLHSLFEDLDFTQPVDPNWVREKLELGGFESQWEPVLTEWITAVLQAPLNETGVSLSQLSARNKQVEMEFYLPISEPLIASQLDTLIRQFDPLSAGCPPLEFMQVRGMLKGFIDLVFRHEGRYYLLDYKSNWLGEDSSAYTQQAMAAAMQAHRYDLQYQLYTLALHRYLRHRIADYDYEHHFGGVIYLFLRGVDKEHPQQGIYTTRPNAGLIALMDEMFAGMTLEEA
# Chain of Delta-type opioid receptor (P41143 whole entry): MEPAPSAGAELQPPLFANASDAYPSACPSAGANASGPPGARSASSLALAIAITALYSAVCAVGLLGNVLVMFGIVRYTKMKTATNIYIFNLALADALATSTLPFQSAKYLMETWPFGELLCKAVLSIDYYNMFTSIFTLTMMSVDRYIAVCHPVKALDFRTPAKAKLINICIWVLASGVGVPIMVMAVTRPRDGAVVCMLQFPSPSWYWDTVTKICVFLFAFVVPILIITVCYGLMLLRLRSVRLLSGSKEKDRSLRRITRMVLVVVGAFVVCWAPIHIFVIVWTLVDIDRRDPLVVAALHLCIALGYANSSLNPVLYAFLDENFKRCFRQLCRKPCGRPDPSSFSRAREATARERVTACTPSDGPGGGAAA
# Chain of Mu-type opioid receptor (P35372 whole entry): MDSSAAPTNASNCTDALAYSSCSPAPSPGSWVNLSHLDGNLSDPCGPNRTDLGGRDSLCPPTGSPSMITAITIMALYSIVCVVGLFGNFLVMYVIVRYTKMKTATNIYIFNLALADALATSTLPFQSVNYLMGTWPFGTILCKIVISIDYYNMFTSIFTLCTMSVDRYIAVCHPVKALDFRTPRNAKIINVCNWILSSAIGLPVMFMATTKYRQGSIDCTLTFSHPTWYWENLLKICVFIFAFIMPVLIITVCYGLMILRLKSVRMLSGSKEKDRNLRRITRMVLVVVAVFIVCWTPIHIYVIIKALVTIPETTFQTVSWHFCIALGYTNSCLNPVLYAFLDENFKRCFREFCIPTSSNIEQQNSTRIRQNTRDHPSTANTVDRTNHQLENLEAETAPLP
structure (smiles),measurement,setting,value
Oc1ccccc1N=Nc1nc(-c2ccccc2)c(-c2ccccc2)[nH]1,AC50,[1],2.29 µM (active)
same,EC50,[2],1.05 µM (active)
same,EC50,[3],0.643 µM (inconclusive)
same,IC50,[4],> 119 µM (inactive)
same,EC50,[5],0.355 µM (active)
same,EC50,[6],< 0.1 µM (active)
same,CC50,[7],0.06 µM (active)
same,EC50,[8],< 0.1 µM (active)
same,IC50,[9],0.533 µM (active)
same,EC50,[10],26 µM (active)
same,EC50,[11],0.118 µM (active)
same,IC50,[12],0.82 µM (active)
same,IC50,[13],> 25 µM (active)
same,EC50,[14],0.282 µM (active)
same,EC50,[15],0.951 µM (active)
same,EC50,[16],0.515 µM (active)
same,EC50,[17],0.507 µM (active)
same,EC50,[18],0.103 µM (active)
same,EC50,[19],1.67 µM (active)
same,EC50,[20],0.278 µM (active)
same,IC50,[21],> 119 µM (inactive)
same,IC50,[22],> 80 µM (inactive)
COc1ccc(-c2nnc(-c3ccc4ccccc4c3)o2)cc1,AC50,[23],> 350 µM (inactive)
Cn1c(=O)n(C)c2cc(S(=O)(=O)N3CCCc4ccccc43)ccc21,EC50,[24],> 59.6 µM (inactive)
same,EC50,[25],> 59.6 µM (inactive)
same,IC50,[26],7.05 µM (not active)
Cc1ccccc1OCC(O)Cn1c(=N)n(Cc2ccccc2)c2ccccc21 (stereo unspecified),AC50,[27],2.25 µM (active)
same,CC50,[28],7.48 µM (active)
same,EC50,[29],1.06 µM (active)
same,AC50,[30],11.2 µM (active)
same,EC50,[31],> 92.5 µM (inactive)
same,CC50,[32],8.06 µM (active)
same,IC50,[33],18.5 µM (active)
same,EC50,[34],2.75 µM (active)
same,EC50,[35],3.35 µM (active)
same,CC50,[36],19.9 µM (active)
same,EC50,[37],> 30 µM (not active)
same,EC50,[38],> 92.5 µM (inactive)
same,AC50,[39],1.49 µM (active)
same,EC50,[40],> 92.5 µM (inactive)
Nc1ccc(CSc2ccc(Cl)cc2)c(Cl)c1,AC50,[23],75.6 µM (active)

# From ChEMBL document CHEMBL1201862, “PubChem BioAssay data set” (2004)
